Assay results from PMC2854136 (Biochemistry, 2009).
“And” between values parts separate entries of the source, which are not always exact repeats. Identical values can stand only once. Like-named read-outs stand apart in the source and are kept apart here.

Key:
[1] = target: T1, Escherichia coli glutaminyl-tRNA synthetase (GlnRS) (Escherichia coli, UniProt P00962); conditions: wild-type GlnRS, cited from earlier work
Target sequence in this assay (P00962 2-554): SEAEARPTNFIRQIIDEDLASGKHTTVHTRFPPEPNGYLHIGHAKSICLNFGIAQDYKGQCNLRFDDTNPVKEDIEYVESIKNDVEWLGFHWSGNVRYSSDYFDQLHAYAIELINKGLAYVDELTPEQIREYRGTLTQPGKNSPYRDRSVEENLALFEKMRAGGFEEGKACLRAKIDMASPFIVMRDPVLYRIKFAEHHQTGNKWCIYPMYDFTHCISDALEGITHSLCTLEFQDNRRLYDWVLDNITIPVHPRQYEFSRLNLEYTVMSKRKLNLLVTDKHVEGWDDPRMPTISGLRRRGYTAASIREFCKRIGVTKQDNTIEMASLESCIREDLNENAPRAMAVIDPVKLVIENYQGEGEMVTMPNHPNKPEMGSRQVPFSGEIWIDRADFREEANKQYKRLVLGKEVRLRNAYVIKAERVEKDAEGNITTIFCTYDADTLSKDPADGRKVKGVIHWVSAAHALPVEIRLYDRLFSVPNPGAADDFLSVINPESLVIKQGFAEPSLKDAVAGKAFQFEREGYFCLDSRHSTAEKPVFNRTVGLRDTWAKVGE

[2] = target: T1, Escherichia coli glutaminyl-tRNA synthetase (GlnRS); format: biochemical
Target sequence in this assay (P00962 2-554): as above

[3] = target: T1, Escherichia coli glutaminyl-tRNA synthetase (GlnRS); assay: Misacylation of tRNA^Gln with glutamate; format: biochemical; conditions: very high glutamate concentrations, single-turnover conditions
Target sequence in this assay (P00962 whole entry): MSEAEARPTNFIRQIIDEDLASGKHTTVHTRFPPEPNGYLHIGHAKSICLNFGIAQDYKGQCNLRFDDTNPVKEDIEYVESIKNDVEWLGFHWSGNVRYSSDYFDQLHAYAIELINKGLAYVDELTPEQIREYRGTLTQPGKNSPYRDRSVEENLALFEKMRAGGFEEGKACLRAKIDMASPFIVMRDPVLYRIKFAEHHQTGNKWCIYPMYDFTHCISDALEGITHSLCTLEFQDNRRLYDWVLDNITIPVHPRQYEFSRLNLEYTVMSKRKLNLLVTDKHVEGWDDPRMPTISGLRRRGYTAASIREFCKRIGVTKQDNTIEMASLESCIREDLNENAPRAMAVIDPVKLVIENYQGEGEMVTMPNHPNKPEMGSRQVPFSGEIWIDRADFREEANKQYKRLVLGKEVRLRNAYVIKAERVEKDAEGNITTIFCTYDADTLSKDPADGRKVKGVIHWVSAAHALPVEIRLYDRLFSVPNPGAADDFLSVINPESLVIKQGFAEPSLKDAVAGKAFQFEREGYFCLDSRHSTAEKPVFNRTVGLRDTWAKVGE

[4] = target: T1, Escherichia coli glutaminyl-tRNA synthetase (GlnRS); format: biochemical; conditions: 3′-dATP versus ATP
Target sequence in this assay (P00962 2-554): as the sequence (P00962 2-554) above

Compound | Km ([1]; read-out: Km (ATP/3′-dATP), Km for ATP) [µM] | kcat ([1]; ATP-mediated glutaminylation, 37 °C) [s⁻¹] | fold diminution of kcat from wild-type (ATP) reaction ([2]; 3′-dATP versus ATP) | fold elevation of Km (ATP/3′-dATP) from wild-type (ATP) reaction ([2]; 3′-dATP versus ATP) [fold] | fold elevation of Km (GLN) from wild-type (ATP) reaction ([2]; 3′-dATP versus ATP) [fold] | Km ([2]; read-out: Km (ATP/3′-dATP), wild-type GlnRS, Km for 3′-dATP) [µM] | kcat ([2]; wild-type GlnRS, 3′-dATP in place of ATP, 50 nM enzyme, 12.5 μM tRNA, 37 °C) [s⁻¹] | misacylation of tRNA^Gln with glutamate using 3′-dATP [3] | fold diminution of kobs from wild-type (ATP) reaction [4] [fold]
Nc1ncnc2c1ncn2[C@@H]1O[C@H](COP(=O)(O)OP(=O)(O)OP(=O)(O)O)[C@@H](O)[C@H]1O [ATP] | 200 ± 20 | 3.2 ± 0.5 | – | – | – | – | – | – | –
3′-dATP | – | – | 70 fold and 71 fold | 2 | 16 | 410 ± 30 | 0.045 ± 0.02 | unable to detect any reaction | 47
